One may read the Ki as the equilibrium dissociation constant of an inhibitor or competing ligand from its target.

The target of the assay is human plasma kallikrein (Homo sapiens (Human), UniProt P03952). The experiment in a line: Plasma kallikrein activity assay (chromogenic substrate S2302). Type of assay: biochemical. The note with it: 2 nM kallikrein, 80 μM S2302, 30° C., pH 7.8; Ki by Cheng-Prusoff equation; values given as ranges; read-out: Ki.
Chain of human plasma kallikrein (P03952 whole entry, looked up): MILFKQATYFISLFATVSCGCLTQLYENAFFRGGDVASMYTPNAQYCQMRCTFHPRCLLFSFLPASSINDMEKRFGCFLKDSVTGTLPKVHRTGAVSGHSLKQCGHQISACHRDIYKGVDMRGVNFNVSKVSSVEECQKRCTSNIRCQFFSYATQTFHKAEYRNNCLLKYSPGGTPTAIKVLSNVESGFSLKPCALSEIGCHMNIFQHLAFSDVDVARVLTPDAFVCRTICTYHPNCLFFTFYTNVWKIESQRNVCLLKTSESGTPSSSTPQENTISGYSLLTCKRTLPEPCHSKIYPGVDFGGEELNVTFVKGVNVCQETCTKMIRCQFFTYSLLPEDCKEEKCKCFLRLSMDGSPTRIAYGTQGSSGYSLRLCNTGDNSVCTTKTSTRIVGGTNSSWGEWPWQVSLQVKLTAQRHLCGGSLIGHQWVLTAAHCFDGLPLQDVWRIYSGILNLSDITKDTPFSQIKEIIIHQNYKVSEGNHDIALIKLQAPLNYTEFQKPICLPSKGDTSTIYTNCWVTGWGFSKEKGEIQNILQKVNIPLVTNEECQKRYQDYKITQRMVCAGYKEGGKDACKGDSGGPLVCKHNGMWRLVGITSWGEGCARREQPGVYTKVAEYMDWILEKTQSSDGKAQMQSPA
Chain of human plasma kallikrein (P03952 whole entry partner, looked up): as the sequence (P03952 whole entry, looked up) above

Description: Plasma Kallikrein Activity Assay.
The effect of compounds of the invention on human plasma kallikrein activity was determined using the chromogenic substrates (DiaPharma Group, Inc., West Chester, Ohio, USA). In these experiments, 2 nM kallikrein (Enzyme Research Laboratories, South Bend, Ind., USA) was incubated with 80 μM S2302 (H-D-Pro-Phe-Arg-p-nitroaniline) in the absence or presence of increasing concentrations of compounds of the invention in a final volume of 200 μL Tris-HCl buffer (200 mM NaCl; mM CaCl2; 50 mM Tris-HCl, pH 7.8).
Data were analyzed using SigmaPlot software (Systat Software, Inc., San Jose, Calif., USA) (Four Parameter Logistic Curve).

With `N#Cc1cccc(C(NCC2CC2)c2cccc(NC(=O)c3cc(C(F)(F)F)nn3-c3cccc(CN)c3)c2)c1` (stereo not drawn) [152d, 1-(3-(aminomethyl)phenyl)-N-(3-((3-cyanophenyl)(cyclopropylmethylamino)methyl)phenyl)-3-(trifluoromethyl)-1H-pyrazole-5-carboxamide], the Ki is 0.1 to 50 nM.

As to `NCc1cccc(-n2nc(C(F)(F)F)cc2C(=O)Nc2cccc(C(CCC3CC3)c3cc[nH]c3)c2)c1` (stereo not drawn) [103b, 1-(3-(aminomethyl)phenyl)-N-(3-(3-cyclopropyl-1-(1H-pyrrol-3-yl)propyl)phenyl)-3-(trifluoromethyl)-1H-pyrazole-5-carboxamide], the Ki was 0.1 to 50 nM.

Consider `NCc1cccc(-n2nc(C(F)(F)F)cc2C(=O)Nc2cccc(C(O)(CCC3CC3)c3cccnc3)c2)c1` (single isomer, unassigned; (-)) [47g, (−)-1-(3-(aminomethyl)phenyl)-N-(3-(3-cyclopropyl-1-hydroxy-1-(pyridin-3-yl)propyl)phenyl)-3-(trifluoromethyl)-1H-pyrazole-5-carboxamide], for which the inhibition constant Ki is 0.1 to 50 nM.

Regarding `NCc1cccc(-n2nc(C(F)(F)F)cc2C(=O)Nc2cccc(C(OCC3CC3)c3cccnc3)c2)c1` (single isomer, unassigned; (+)) [44d, (+)-1-(3-(aminomethyl)phenyl)-N-(3-((cyclopropylmethoxy)(pyridin-3-yl)methyl)phenyl)-3-(trifluoromethyl)-1H-pyrazole-5-carboxamide], the Ki lay in the range of 0.1 to 50 nM.

As to `CCCN(c1ccccc1)c1cccc(NC(=O)c2cc(C(F)(F)F)nn2-c2cccc(CN)c2)c1F` [29e, 1-(3-(aminomethyl)phenyl)-N-(2-fluoro-3-(phenyl(propyl)amino)phenyl)-3-(trifluoromethyl)-1H-pyrazole-5-carboxamide], the Ki lay within 0.1 to 50 nM.

With `NCc1cccc(-n2nc(C(F)(F)F)cc2C(=O)Nc2cccc(C(O)c3ccccc3)c2F)c1` (stereo not drawn) [35g, 1-(3-(aminomethyl)phenyl)-N-(2-fluoro-3-(hydroxy(phenyl)methyl)phenyl)-3-(trifluoromethyl)-1H-pyrazole-5-carboxamide], the Ki lay in the range of 50 to 100 nM.

Consider `NCc1cccc(-n2nc(C(F)(F)F)cc2C(=O)Nc2cccc(C(NCC3CC3)c3ccc(-c4ccccc4)cc3)c2)c1` (stereo not drawn) [133g, 1-(3-(aminomethyl)phenyl)-N-(3-(biphenyl-4-yl(cyclopropylmethylamino)methyl)phenyl)-3-(trifluoromethyl)-1H-pyrazole-5-carboxamide], for which the inhibition constant Ki lay within 0.1 to 50 nM.

`NCc1cccc(-n2nc(C(F)(F)F)cc2C(=O)Nc2cccc(C(OCC3CC3)c3cccnc3)c2)c1` (single isomer, unassigned; (-)) [44e, (−)-1-(3-(aminomethyl)phenyl)-N-(3-((cyclopropylmethoxy)(pyridin-3-yl)methyl)phenyl)-3-(trifluoromethyl)-1H-pyrazole-5-carboxamide]: the Ki lay within 0.1 to 50 nM.

As for `CCNCc1cccc(-n2nc(C(F)(F)F)cc2C(=O)Nc2cc(C(NCC3CC3)c3ccccc3)ccc2F)c1` (single isomer, unassigned; (-)) [270a, (−)-N-(5-((cyclopropylmethylamino)(phenyl)methyl)-2-fluorophenyl)-1-(3-((ethylamino)methyl)phenyl)-3-(trifluoromethyl)-1H-pyrazole-5-carboxamide], the inhibition constant (Ki) was in the range of 50 to 100 nM.

As to `NCc1cccc(-n2nc(C(F)(F)F)cc2C(=O)Nc2cccc(C(OCC3CC3)c3nccs3)c2)c1` (stereo not drawn) [82f, 1-(3-(aminomethyl)phenyl)-N-(3-((cyclopropylmethoxy)(thiazol-2-yl)methyl)phenyl)-3-(trifluoromethyl)-1H-pyrazole-5-carboxamide], the inhibitory constant (Ki) is 0.1 to 50 nM.

For `N#Cc1cccc(C(N)(CCC2CC2)c2ccc(F)c(NC(=O)c3cc(C(F)(F)F)nn3-c3ccc4ccnc(N)c4c3)c2)c1` (single isomer, unassigned; (+)) [256a, (+)-N-(5-(1-amino-1-(3-cyanophenyl)-3-cyclopropylpropyl)-2-fluorophenyl)-1-(1-aminoisoquinolin-7-yl)-3-(trifluoromethyl)-1H-pyrazole-5-carboxamide], the Ki is 0.1 to 50 nM.

On to `CN1CCCN(C(CCC2CC2)c2ccc(F)c(NC(=O)c3cc(C(F)(F)F)nn3-c3cccc(CN)c3)c2)CC1` (stereo not drawn) [251e, 1-(3-(aminomethyl)phenyl)-N-(5-(3-cyclopropyl-1-(4-methyl-1,4-diazepan-1-yl)propyl)-2-fluorophenyl)-3-(trifluoromethyl)-1H-pyrazole-5-carboxamide], for which the Ki lay in the range of 50 to 100 nM.

Take `NCc1cccc(-n2nc(C(F)(F)F)cc2C(=O)Nc2cccc(C(NCC3CC3)c3cccc(OC(F)(F)F)c3)c2)c1` (stereo not drawn) [124f, 1-(3-(aminomethyl)phenyl)-N-(3-((cyclopropylmethylamino)(3-(trifluoromethoxy)phenyl)methyl)phenyl)-3-(trifluoromethyl)-1H-pyrazole-5-carboxamide]: the Ki lay in the range of 0.1 to 50 nM.

Consider `NCc1cccc(C(NCC2CC2)c2ccc(F)c(NC(=O)c3cc(C(F)(F)F)nn3-c3cccc(CN)c3)c2)c1` (stereo not drawn) [155c, 1-(3-(aminomethyl)phenyl)-N-(5-((3-(aminomethyl)phenyl)(cyclopropylmethylamino)methyl)-2-fluorophenyl)-3-(trifluoromethyl)-1H-pyrazole-5-carboxamide], for which the inhibition constant (Ki) lay within 0.1 to 50 nM.

Regarding `NCc1cccc(-n2nc(C(F)(F)F)cc2C(=O)Nc2cc(F)cc(C(OCC3CC3)c3ccccc3)c2)c1` (stereo not drawn) [80h, 1-(3-(aminomethyl)phenyl)-N-(3-((cyclopropylmethoxy)(phenyl)methyl)-5-fluorophenyl)-3-(trifluoromethyl)-1H-pyrazole-5-carboxamide], the Ki fell in the range of 0.1 to 50 nM.

For `NCc1cccc(-n2nc(C(F)(F)F)cc2C(=O)Nc2cccc(C(OCC3CC3)c3cccc(N)c3)c2)c1` (stereo not drawn) [53f, 1-(3-(aminomethyl)phenyl)-N-(3-((3-aminophenyl)(cyclopropyl-methoxy)methyl)phenyl)-3-(trifluoromethyl)-1H-pyrazole-5-carboxamide], the Ki is 0.1 to 50 nM.

In the case of `Nc1nccc2ccc(-n3nc(C(F)(F)F)cc3C(=O)Nc3cc(C(N)(CCC4CC4)c4ccncc4)ccc3F)cc12` (single isomer, unassigned; (+)) [253e, (+)-N-(5-(1-amino-3-cyclopropyl-1-(pyridin-4-yl)propyl)-2-fluorophenyl)-1-(1-aminoisoquinolin-7-yl)-3-(trifluoromethyl)-1H-pyrazole-5-carboxamide], the inhibition constant (Ki) is 0.1 to 50 nM.

For the molecule `NCc1cccc(-n2nc(C(F)(F)F)cc2C(=O)Nc2cccc(C(NCC3CC3)c3ccc(S(N)(=O)=O)cc3)c2)c1` (stereo not drawn) [112g, 1-(3-(aminomethyl)phenyl)-N-(3-((cyclopropylmethylamino)(4-sulfamoylphenyl)methyl)phenyl)-3-(trifluoromethyl)-1H-pyrazole-5-carboxamide], the inhibition constant Ki is 0.1 to 50 nM.

On to `CCCCC(c1ccccc1)c1cccc(NC(=O)c2cc(C(F)(F)F)nn2-c2cccc(CN)c2)c1` (stereo not drawn) [32f, 1-(3-(aminomethyl)phenyl)-N-(3-(1-phenylpentyl)phenyl)-3-(trifluoromethyl)-1H-pyrazole-5-carboxamide], for which the inhibitory constant (Ki) was in the range of 50 to 100 nM.

On to `NCc1cccc(-n2nc(C(F)(F)F)cc2C(=O)Nc2cccc(C(NCC3CC3)c3cccc(N)c3)c2)c1` (stereo not drawn) [102b, 1-(3-(aminomethyl)phenyl)-N-(3-((3-aminophenyl)(cyclopropylmethylamino)methyl)phenyl)-3-(trifluoromethyl)-1H-pyrazole-5-carboxamide], for which the inhibition constant Ki lay in the range of 0.1 to 50 nM.

For the molecule `NCc1cccc(-n2nc(C(F)(F)F)cc2C(=O)Nc2cc(C(NCC3CC3)c3nccs3)ccc2F)c1` (stereo not drawn) [101e, 1-(3-(Aminomethyl)phenyl)-N-(5-((cyclopropylmethylamino)(thiazol-2-yl)methyl)-2-fluorophenyl)-3-(trifluoromethyl)-1H-pyrazole-5-carboxamide], the inhibition constant Ki was 0.1 to 50 nM.

Consider `NCc1cccc(-n2nc(C(F)(F)F)cc2C(=O)Nc2cccc(C(O)(CCC3CC3)c3cccnc3)c2)c1` (single isomer, unassigned; (+)) [47h, (+)-1-(3-(aminomethyl)phenyl)-N-(3-(3-cyclopropyl-1-hydroxy-1-(pyridin-3-yl)propyl)phenyl)-3-(trifluoromethyl)-1H-pyrazole-5-carboxamide], for which the inhibitory constant (Ki) lay within 0.1 to 50 nM.

Consider `NCc1cccc(-n2nc(C(F)(F)F)cc2C(=O)Nc2cccc(C(NCC3CC3)c3cccc(C(F)(F)F)c3)c2)c1` (stereo not drawn) [111f, 1-(3-(Aminomethyl)phenyl)-N-(3-((cyclopropylmethylamino)(3-(trifluoromethyl)phenyl)methyl)phenyl)-3-(trifluoromethyl)-1H-pyrazole-5-carboxamide], for which the Ki is 0.1 to 50 nM.

With `NCc1cccc(-n2nc(C(F)(F)F)cc2C(=O)Nc2cccc(C(NCC3CC3)c3cccc(O)c3)c2)c1` (stereo not drawn) [137a, 1-(3-(Aminomethyl)phenyl)-N-(3-((cyclopropylmethylamino)(3-hydroxyphenyl)methyl)phenyl)-3-(trifluoromethyl)-1H-pyrazole-5-carboxamide], the inhibition constant (Ki) was 0.1 to 50 nM.

On to `Cc1ccc(C(NCC2CC2)c2cccc(NC(=O)c3cc(C(F)(F)F)nn3-c3cccc(CN)c3)c2)c(C)c1` (stereo not drawn) [201f, 1-(3-(aminomethyl)phenyl)-N-(3-(((cyclopropylmethyl)amino)(2,4-dimethylphenyl)methyl)phenyl)-3-(trifluoromethyl)-1H-pyrazole-5-carboxamide], for which the inhibition constant Ki lay within 0.1 to 50 nM.

As to `NCc1cccc(-n2nc(C(F)(F)F)cc2C(=O)Nc2cccc(C(NCC3CC3)c3ccc4ccccc4c3)c2)c1` (stereo not drawn) [128g, 1-(3-(aminomethyl)phenyl)-N-(3-((cyclopropylmethylamino)(naphthalen-2-yl)methyl)phenyl)-3-(trifluoromethyl)-1H-pyrazole-5-carboxamide], the Ki is 0.1 to 50 nM.

Consider `NCc1cccc(-n2nc(C(F)(F)F)cc2C(=O)Nc2cccc(N(CCC3CC3)c3ccccc3)c2)c1` [87f, 1-(3-(aminomethyl)phenyl)-N-(3-((2-cyclopropylethyl)(phenyl)amino)phenyl)-3-(trifluoromethyl)-1H-pyrazole-5-carboxamide], for which the Ki was 0.1 to 50 nM.
